Measured values published in ChEMBL document CHEMBL3044835, “Pachyelasides A-D, novel molluscicidal triterpene saponins from Pachyelasma tessmannii” (2005).
Converted amounts (≈) assume the structure as drawn.

Test system: Biomphalaria glabrata
Assay: Molluscicidal activity against Biomphalaria glabrata assessed as heartbeat measured after 24 hr
Assay type: functional
Details: read-out: LD50 (the source's name)

Row | Structure (SMILES) | LC50
1 | CC1(C)CC[C@]2(C(=O)O)CC[C@]3(C)C(=CC[C@@H]4[C@@]5(C)CC[C@H](O[C@@H]6O[C@H](CO)[C@@H](O)[C@H](O)[C@H]6O[C@@H]6O[C@H](CO)[C@@H](O)[C@H](O[C@@H]7O[C@H](CO)[C@@H](O)[C@H](O)[C@H]7O[C@@H]7O[C@H](CO)[C@@H](O)[C@H](O)[C@H]7O)[C@H]6O)C(C)(C)[C@@H]5CC[C@]43C)[C@@H]2C1 [PACHYELASIDE B] | 2 µg/mL (≈ 1.81 µM)
2 | CC1(C)C[C@H]2C3=CC[C@@H]4[C@@]5(C)CC[C@H](O[C@@H]6O[C@H](CO)[C@@H](O[C@@H]7OC[C@@H](O)[C@H](O)[C@H]7O)[C@H](O)[C@H]6O[C@@H]6OC[C@@H](O)[C@H](O[C@@H]7O[C@H](CO)[C@@H](O)[C@H](O)[C@H]7O[C@@H]7O[C@H](CO)[C@@H](O)[C@H](O)[C@H]7O)[C@H]6O)C(C)(C)[C@@H]5CC[C@@]4(C)[C@]3(C)CC[C@@]2(C(=O)O)C[C@@H]1OC(=O)/C=C/c1ccccc1 [PACHYELASIDE C] | 2 µg/mL (≈ 1.48 µM)
3 | CC1(C)C[C@H]2C3=CC[C@@H]4[C@@]5(C)CC[C@H](O[C@@H]6O[C@H](CO)[C@@H](O[C@@H]7OC[C@@H](O)[C@H](O)[C@H]7O)[C@H](O)[C@H]6O[C@@H]6O[C@H](CO)[C@@H](O)[C@H](O[C@@H]7O[C@H](CO)[C@@H](O)[C@H](O)[C@H]7O[C@@H]7O[C@H](CO)[C@@H](O)[C@H](O)[C@H]7O)[C@H]6O)C(C)(C)[C@@H]5CC[C@@]4(C)[C@]3(C)CC[C@@]2(C(=O)O)C[C@@H]1OC(=O)/C=C/c1ccccc1 [PACHYELASIDE D] | 8 µg/mL (≈ 5.78 µM)
4 | CC1(C)C[C@H]2C3=CC[C@@H]4[C@@]5(C)CC[C@H](O[C@@H]6O[C@H](CO)[C@@H](O)[C@H](O)[C@H]6O[C@@H]6O[C@H](CO)[C@@H](O)[C@H](O[C@@H]7O[C@H](CO)[C@@H](O)[C@H](O)[C@H]7O[C@@H]7O[C@H](CO)[C@@H](O)[C@H](O)[C@H]7O)[C@H]6O)C(C)(C)[C@@H]5CC[C@@]4(C)[C@]3(C)CC[C@@]2(C(=O)O)C[C@@H]1OC(=O)/C=C/c1ccccc1 [PACHYELASIDE-A] | 2 µg/mL (≈ 1.6 µM)
